{"source": "patent US9226965B2", "about": "“Method and composition for treating heart failure” (U.S. DEPARTMENT OF VETERANS AFFAIRS, priority 2007, dated 2016)", "assay_type_in_all_cases": "in vivo, rat", "key": {"[1]": {"system": "SHR with heart failure", "test": "Serial echocardiographic measurement of LV ejection fraction in SHR", "conditions": "echocardiography, SHR-F following 30 days of treatment, n=6 per group", "source_text": "FIGS. 1A-1B illustrate serial echocardiographic measurements in SHR. LV ejection fraction (FIG. 1A) and end-systolic and end-diastolic LV volume (FIG. 1B) of male SHR during the transition to heart failure (12, 17, and 19 months of age). EF, LV ejection fraction (%); ESV, end-systolic volume (ml); EDV, end-diastolic volume (ml). LV function remains compensated until approximately 17 months, and then rapidly declines; mean age at onset of heart failure 19±1 months. FIGS. 2A-2B represent serial echocardiographic measurements (n=6 animals per group) of LV ejection fraction (LVEF) from individual SHR obtained before the onset of heart failure (Baseline), at the time of heart failure (HF) and following 30 days of treatment (Rx) with either captopril (CAPT—FIG. 2A) or combined captopril and phenylbutyrate treatment (CAPT+PB—FIG. 2B). Note marked reduction in LVEF with HF. […] FIG. 3 illustrates LV ejection fraction (LVEF) in non-failing SHR (SHR-NF), SHR with HF (SHR-F) and SHR-F following 30 days of captopril (CAPT) or combined phenylbutyrate and captopril treatment (CAPT+PB). […] Data are mean±SD (n=6 per group)."}, "[2]": {"system": "SHR with heart failure", "test": "Quantitative histological examination of myocardial fibrosis", "conditions": "Table 3, 30 days treatment, mean ± SD", "procedure": "We studied isolated papillary muscle function in the spontaneously hypertensive rat (SHR) which develops heart failure (HF) between 18-24 month of age. Four groups of SHR each consisting of six animals were examined: non-treated SHR with HF (SHR-F), age matched controls without HF (SHR-NF), and SHR with HF that were treated with the ACE inhibitor captopril (2 g/L in drinking water) (SHR-F+C) or captopril combined with the histone deacetylase inhibitor phenylbutyrate (6 g/L in drinking water) for 30 days (SHR-F+CP). […] Following treatment, hearts were isolated and contractile function of LV papillary muscles studied. LV weight and histology were assessed. RNA was isolated from 24 LV samples and subjected to individual Affymetrix (230 2.0) array analysis. Table 3 (below) summarizes the physiological, histological and gene expression findings from this study. […] SHR-F; see FIGS. 7A-7B)."}, "[3]": {"system": "left ventricular papillary muscles from SHR with heart failure", "test": "Mechanical function of isolated left ventricular papillary muscles from treated SHR with heart failure", "procedure": "At the time of sacrifice, left ventricular papillary muscles were dissected free and mounted in an isolated muscle bath containing oxygenated physiologic solution for assessment of mechanical function. Muscle mechanics were measured under computer control of force or length of the preparation. Force and length data were sampled at a rate of 1 kHz and stored on disk for later analysis.\nTreatment was continued for 30 days and then the animals studied.\nWe studied isolated papillary muscle function in the spontaneously hypertensive rat (SHR) which develops heart failure (HF) between 18-24 month of age. […] Following treatment, hearts were isolated and contractile function of LV papillary muscles studied. LV weight and histology were assessed. RNA was isolated from 24 LV samples and subjected to individual Affymetrix (230 2.0) array analysis."}, "[4]": {"system": "left ventricular tissue from SHR with heart failure", "test": "Affymetrix (230 2.0) array mRNA analysis of left ventricular tissue from treated SHR with heart failure", "source_text": "Adult male spontaneously hypertensive rats (SHR) rats were purchased as retired breeders from Taconic Inc and boarded in the animal facility at the Boston VA Healthcare system until the time of study (18 to 24 months of age). Each rat was caged alone and allowed free access to chow and water. Animals were monitored several times per week for evidence of tachypnea and labored respiration; when these clinical findings were clearly in evidence, animals were either killed and studied or treated with captopril and/or phenylbutyrate. Groups of animals were treated by adding the angiotensin converting enzyme inhibitor captopril to the drinking water (2 g/L to drinking water) and/or phenylbutyrate to the drinking water (6 g/L to the drinking water; sodium 4-phenylbutyrate (Triple Crown America, Inc.)) when clinical evidence of impaired cardiac function was detected. Treatment was continued for 30 days, the animals closely monitored and then studied. A control group of age-matched, untreated SHR rats was used for comparison. At autopsy, animals were examined for pleural or pericardial effusions, atrial thrombi, and right and left ventricular hypertrophy. The heart was lightly blotted and weight, and individual cardiac chambers were quickly dissected, and chamber weight recorded. Left ventricular tissue samples were rapidly frozen and stored in liquid nitrogen for later mRNA analysis. Subsequently, total RNA was isolated from all left ventricular samples and subjected to individual Affymetrix (230 2.0) array analysis (performed at the Genomics Laboratory of Boston University School of Medicine, Boston Mass.). Six individual animals were included in each experimental group. […] FIGS. 7A-7B provide a visual summary of the quantitative changes in transcripts observed with heart failure (SHR-F) compared to non-failing gene expression (SHR-F vs. SHR-NF) and those effects of treatment (SHR-F+C and SHR-F+CP) relative to un-treated SHR with heart failure. […] FIGS. 8A-8B provide a summary of the number of identified transcripts whose expression was reversed following treatment relative to un-treated SHR with failure. In contrast, phenylbutyrate when combined with captopril treatment reversed expression of more than 47% of heart failure-induced changes in gene expression (p<0.01). […] Analysis of pooled mRNA samples of right ventricular tissue indicate relatively few genes were differentially expressed between LV and RV tissue either with failure or treatment (data not shown). LV and RV are similarly affected by heart failure and amenable to therapeutic treatment effects. Taken together, these findings are consistent with the concept that phenylbutyrate acts as a wide scale inhibitor of transcription to reverse aspects of adverse remodeling and dysfunction associated with heart failure. […] We studied isolated papillary muscle function in the spontaneously hypertensive rat (SHR) which develops heart failure (HF) between 18-24 month of age. Four groups of SHR each consisting of six animals were examined: non-treated SHR with HF (SHR-F), age matched controls without HF (SHR-NF), and SHR with HF that were treated with the ACE inhibitor captopril (2 g/L in drinking water) (SHR-F+C) or captopril combined with the histone deacetylase inhibitor phenylbutyrate (6 g/L in drinking water) for 30 days (SHR-F+CP). […] Following treatment, hearts were isolated and contractile function of LV papillary muscles studied. LV weight and histology were assessed. RNA was isolated from 24 LV samples and subjected to individual Affymetrix (230 2.0) array analysis. Table 3 (below) summarizes the physiological, histological and gene expression findings from this study. […] SHR-F; see FIGS. 7A-7B)."}, "[5]": {"system": "spontaneously hypertensive rats (SHR) with heart failure", "test": "Body weight, cardiac chamber weights and hypertrophy indices in SHR with heart failure after 30 days of treatment", "source_text": "Adult male spontaneously hypertensive rats (SHR) rats were purchased as retired breeders from Taconic Inc and boarded in the animal facility at the Boston VA Healthcare system until the time of study (18 to 24 months of age). Each rat was caged alone and allowed free access to chow and water. Animals were monitored several times per week for evidence of tachypnea and labored respiration; when these clinical findings were clearly in evidence, animals were either killed and studied or treated with captopril and/or phenylbutyrate. Groups of animals were treated by adding the angiotensin converting enzyme inhibitor captopril to the drinking water (2 g/L to drinking water) and/or phenylbutyrate to the drinking water (6 g/L to the drinking water; sodium 4-phenylbutyrate (Triple Crown America, Inc.)) when clinical evidence of impaired cardiac function was detected. Treatment was continued for 30 days, the animals closely monitored and then studied. A control group of age-matched, untreated SHR rats was used for comparison. At autopsy, animals were examined for pleural or pericardial effusions, atrial thrombi, and right and left ventricular hypertrophy. The heart was lightly blotted and weight, and individual cardiac chambers were quickly dissected, and chamber weight recorded. Left ventricular tissue samples were rapidly frozen and stored in liquid nitrogen for later mRNA analysis. Subsequently, total RNA was isolated from all left ventricular samples and subjected to individual Affymetrix (230 2.0) array analysis (performed at the Genomics Laboratory of Boston University School of Medicine, Boston Mass.). Six individual animals were included in each experimental group. Table 1 (below) summarizes body weight, cardiac chamber weight, and ratios with and without treatment. Referring to Table 1, four groups of six SHR/group were examined: non-treated SHR with heart failure (SHR-F), age matched controls without heart failure (SHR-NF), and SHR with heart failure treated with the angiotensin converting enzyme inhibitor captopril (2 g/L in drinking water) (SHR-F+C) or captopril combined with the histone deacetylase inhibitor phenylbutyrate (6 g/L in the drinking water) for 30 days (SHR-F+CP). […] It was observed that SHR rats with heart failure had enlarged hearts and increased cardiac chamber weights relative to non-failing SHR group and the captopril treated SHR groups. In contrast, the rats treated with phenylbutyrate and captopril had far smaller cardiac chamber weights. There were no significant differences in body weight among the experimental groups. Indices of cardiac hypertrophy (i.e. LV/body weight ratio and RV/body weight ratios) were reduced with phenylbutyrate treatment. Cardiac chamber weight to tibia length data confirmed these findings."}, "[6]": {"conditions": "Table 2, LV papillary muscle after 30 days treatment, mean ± SD"}, "[7]": {"conditions": "Table 3, LV papillary muscle after 30 days treatment, mean ± SD"}, "[8]": {"conditions": "Table 3, LV samples, p < 0.01 vs. SHR-F"}, "[9]": {"conditions": "of 1431 genes different between SHR-F and SHR-NF, p<0.01 vs. SHR-F"}, "[10]": {"conditions": "Table 1, SHR with heart failure, 30 days treatment, mean ± SD, n=6"}}, "note": "“Also recorded” adds a separate entry of the source."}
{"smiles": "C[C@H](CS)C(=O)N1CCC[C@H]1C(=O)O", "note": "[captopril]", "values": [{"measurement": "LV ejection fraction (LVEF), result in words", "setting": "[1]", "value": "minimal improvement; also recorded: no significant change"}, {"measurement": "Fibrosis (%)", "setting": "[2]", "value": "22.8 ± 3.1", "unit": "%"}, {"measurement": "quick release force-velocity (F-V) relationships from LV papillary muscles, result in words", "setting": "[3]; FIG. 6A", "value": "not significantly increased"}, {"measurement": "active tension (AT) of LV papillary muscles, result in words", "setting": "[3]; FIG. 6B", "value": "did not improve"}, {"measurement": "contractile function and passive muscle stiffness, result in words", "setting": "[3]; SHR with heart failure, 30 days treatment", "value": "did not restore contractile function or reduce passive muscle stiffness"}, {"measurement": "+dT/dt (rate of tension development)", "setting": "[3]; [6]", "value": "28.4 ± 8.0", "unit": "g/mm^2/s"}, {"measurement": "AT (active tension)", "setting": "[3]; [6]", "value": "2.7 ± 0.4", "unit": "g/mm^2"}, {"measurement": "Kwm (whole muscle stiffness)", "setting": "[3]; [6]", "value": "73.9 ± 4.2"}, {"measurement": "V1.0 (shortening velocity)", "setting": "[3]; [6]", "value": "0.9 ± 0.2", "unit": "muscle length/s"}, {"measurement": "AT (active tension)", "setting": "[3]; [7]", "value": "2.7 ± 0.4", "unit": "g/mm^2"}, {"measurement": "V0.1 (shortening velocity)", "setting": "[3]; [7]", "value": "0.9 ± 0.2", "unit": "muscle lengths/s"}, {"measurement": "Gene Expression (number), down-regulated (↓) vs. SHR-F", "setting": "[4]; [8]", "value": 42}, {"measurement": "Gene Expression (number), up-regulated (↑) vs. SHR-F", "setting": "[4]; [8]", "value": 99}, {"measurement": "number of identified genes down-regulated by treatment (overexpressed/induced with heart failure)", "setting": "[4]; identified transcripts", "value": 12}, {"measurement": "number of identified genes up-regulated by treatment (repressed with heart failure)", "setting": "[4]; identified transcripts", "value": 15}, {"measurement": "number of identified genes whose expression was reversed by treatment", "setting": "[4]; identified transcripts, relative to un-treated SHR with failure", "value": 27}, {"measurement": "number of genes whose change in expression was significantly reversed", "setting": "[4]; [9]", "value": 141}, {"measurement": "percentage of genes whose change in expression was significantly reversed", "setting": "[4]; [9]", "value": 9.8, "unit": "%"}, {"measurement": "transcripts significantly modified with treatment", "setting": "[4]; of heart failure-altered transcripts, p<0.01", "value": "< 2", "unit": "%"}, {"measurement": "LV/BW ratio, index of LV hypertrophy, result in words", "setting": "[5]; FIG. 4A, SHR-F following 30 days of treatment", "value": "no significant reduction"}, {"measurement": "RV/BW ratio, index of RV hypertrophy, result in words", "setting": "[5]; FIG. 4B, SHR-F following 30 days of treatment", "value": "decreased with treatment"}, {"measurement": "LV/body wt. (left ventricular to body weight ratio)", "setting": "[5]; [10]", "value": "3.3 ± 0.3^+ ratio"}, {"measurement": "RV/body wt. (right ventricular to body weight ratio)", "setting": "[5]; [10]", "value": "0.86 ± 0.20^+ ratio"}, {"measurement": "LV/Body Weight (ratio)", "setting": "[5]; Table 3, SHR with heart failure, 30 days treatment, mean ± SD", "value": "3.3 ± 0.4", "unit": "ratio"}]}
